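Tested at 5 concentrations; 48 h exposure; 96-well plates; endpoints linearly interpolated, else capped at highest concentration. TGI denotes the concentration required for complete inhibition of growth.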
What was measured:
Test in all cases: DTP human tumour cell line panel, 48 h
SW-620 colon = test system: SW-620 colon
M14 melanoma = test system: M14 melanoma
HOP-62 NSCLC = test system: HOP-62 NSCLC
PC-3 prostate = test system: PC-3 prostate
UO-31 renal = test system: UO-31 renal
OVCAR-4 ovarian = test system: OVCAR-4 ovarian
HCT-116 colon = test system: HCT-116 colon
SF-295 CNS = test system: SF-295 CNS
SN12C renal = test system: SN12C renal
SNB-75 CNS = test system: SNB-75 CNS

Structure (SMILES) | TGI (SW-620 colon) | TGI (M14 melanoma) | TGI (HOP-62 NSCLC) | TGI (PC-3 prostate) | TGI (UO-31 renal) | TGI (OVCAR-4 ovarian) | TGI (HCT-116 colon) | TGI (SF-295 CNS) | TGI (SN12C renal) | TGI (SNB-75 CNS)
C=CC(Br)(CBr)CCC(Br)C(C)C (configuration not stated) | 5.38 µM | 15.3 µM | 9.71 µM | 19.5 µM | 26.3 µM | 17.9 µM | 14.3 µM | 8.44 µM | 27.2 µM | 6.13 µM
CC(=O)N(CN1C(=O)CCC1C(=O)O)c1ccccc1Cl (configuration not stated) | > 100 µM | > 100 µM | > 100 µM | > 100 µM | > 100 µM | > 100 µM | > 100 µM | > 100 µM | > 100 µM | > 100 µM
CN1C(=O)N(C)C2(CCN(CCCCCCF)CC2)C1=O | > 100 µM | > 100 µM | > 100 µM | > 100 µM | > 100 µM |  | > 100 µM | > 100 µM | > 100 µM | > 100 µM
O=C1c2cc([N+](=O)[O-])sc2C(=O)c2ccsc21 | 0.779 µM | 0.663 µM | 0.486 µM | 1.8 µM | 2.59 µM | 0.947 µM | 0.816 µM | 0.993 µM | 1.33 µM | 2.71 µM
Cc1sc2nc3n(c(=O)c2c1C)N=C(c1ccc([N+](=O)[O-])cc1)CS3 | > 100 µM |  | > 100 µM | > 100 µM | > 100 µM |  | > 100 µM | > 100 µM | > 100 µM | > 100 µM
CCN(CC)CCNc1ccc2ncn3c4cc(=O)ccc4c(O)c1c23 | 21 µM | 14.4 µM | 17.9 µM |  | 22 µM | 13.5 µM | 15.5 µM | 10.7 µM | 15.7 µM | 21.6 µM
COCCNC1CCC2(SCCS2)c2[nH]c3ccccc3c21 (configuration not stated) | > 100 µM | 30.4 µM | > 100 µM | > 100 µM |  | > 100 µM | > 100 µM | > 100 µM | 91.9 µM | > 100 µM
O=C(O)CC(O)(C(=O)O)C(O)C(=O)O (configuration not stated) | > 1000 µM | > 1000 µM | > 1000 µM | > 1000 µM |  | > 1000 µM | > 1000 µM | > 1000 µM | > 1000 µM | > 1000 µM
O=C1N[C@@H](COc2ccc(C=Nc3ccc(CCc4ccc(N=Cc5ccc(OC[C@@H]6COC(=O)N6)cc5)cc4)cc3)cc2)CO1 | > 100 µM | > 100 µM | > 100 µM | > 100 µM | > 100 µM | > 100 µM | > 100 µM | > 100 µM | > 100 µM | 
CCCCNC(=S)Nc1nc(C(=O)NNC(=O)c2ccccc2)cs1 | 30.2 µM | 28.6 µM | 42.9 µM | 39.7 µM | 28.5 µM | > 100 µM | 27.1 µM | 33.9 µM | 38 µM | 72.7 µM
CC(=O)OCC1OC(N2C(S)=C(C#N)C(c3ccco3)C(C(C)=O)=C2c2ccccc2)C(OC(C)=O)C(OC(C)=O)C1OC(C)=O (configuration not stated) | > 100 µM | > 100 µM | 45.1 µM | > 100 µM | 91.4 µM | 44.8 µM | > 100 µM | 94 µM | > 100 µM | > 100 µM
CC1CC[C@@]2(OC1)OC1C[C@H]3[C@@H]4CCC5CC(O)CC[C@]5(C)[C@H]4C/C(=N\N(C)C)[C@]3(C)C1[C@@H]2C (some centres not stated) | > 100 µM | > 100 µM | 54.7 µM | 84.6 µM | 90.4 µM | > 100 µM | 60.3 µM |  | 64.7 µM | 
Cc1cccc(NC2=NCCO2)c1Cl | > 100 µM | > 100 µM | > 100 µM |  | > 100 µM | > 100 µM | > 100 µM | > 100 µM | > 100 µM | > 100 µM
C#CCCCC(=O)N(C(=O)CS(=O)CC)c1ccccc1 (configuration not stated) | > 100 µM | > 100 µM | > 100 µM | > 100 µM | > 100 µM | > 100 µM | > 100 µM | > 100 µM | > 100 µM | > 100 µM
O=C(Oc1cccc(Cl)c1)c1cc2cc(CCl)ccc2oc1=O | > 100 µM | 31.4 µM | > 100 µM | > 100 µM | > 100 µM | > 100 µM | > 100 µM | > 100 µM | > 100 µM | > 100 µM
Brc1cccc[n+]1-c1ccc2cc(-[n+]3ccccc3Br)ccc2c1 | > 100 µM | > 100 µM | 75.6 µM | > 100 µM | 38.5 µM |  | > 100 µM | > 100 µM | > 100 µM | 
c1ccc(CCn2cncn2)cc1 | > 100 µM | > 100 µM | > 100 µM |  | > 100 µM | > 100 µM | > 100 µM | > 100 µM | > 100 µM | > 100 µM
C=CCC(CNC(=O)OCc1ccccc1)OC(=O)OCc1ccccc1 (configuration not stated) | > 100 µM | > 100 µM | > 100 µM | > 100 µM | > 100 µM | > 100 µM | > 100 µM | > 100 µM | > 100 µM | > 100 µM
CC1CN=C(c2ccc(COc3ccc(C4=NCC(C)N4)cc3)cc2)N1 (configuration not stated) | > 100 µM | > 100 µM | > 100 µM | > 100 µM | > 100 µM | > 100 µM | > 100 µM | > 100 µM | > 100 µM | 64.4 µM
O=S(=O)(/N=C(\NO)Nc1ccc(Cl)cc1)c1ccc(-c2ccccn2)s1 | > 100 µM | > 100 µM | > 100 µM | > 100 µM | > 100 µM | > 100 µM | > 100 µM | > 100 µM | 72.9 µM | > 100 µM
COc1ccc(C[C@@H]2OC3(C=CC(=O)C=C3)O[C@H]2Cc2ccc(OC)cc2)cc1 | 0.383 µM | 2.53 µM | 3.59 µM | 3.47 µM | 0.379 µM | 2.14 µM | 0.33 µM | 7.89 µM | 3.16 µM | 3.04 µM
COc1ccc(N2C(=O)C3CC4=CC(=O)C[C@H]4[C@H]32)cc1 (some centres not stated) | > 100 µM | > 100 µM | > 100 µM | > 100 µM | > 100 µM | > 100 µM | > 100 µM | > 100 µM | > 100 µM | > 100 µM
